Patent US20130317096A1, “SYNERGISTIC INTERACTION OF AT LEAST ONE VITAMIN E COMPONENT AND TYROSINASE INHIBITORS FOR DERMATOLOGICAL APPLICATIONS” (Davos Life Science Pte Ltd, priority 2010, published 2013)

Legend:
[1] = test system: B16 melanoma cells; assay: Melanin content of treated B16 melanoma cells; format: cell-based, mouse; details: for melanin content lower than controls / melanin content: 20 μM; for melanin content: days 5 and 9
Method: (§1) At different time points, cells were harvested using trysin-EDTA and the cell pellets were washed once with phosphate-buffered saline (PBS). A sample amount from each compound treatment group was divided into two equal parts. These cell pellets were then stored at −80° C. prior to the measurement of the tyrosinase activity and melanin content.
Harvested cell pellets were dissolved in 1 ml of 1N sodium hydroxide before incubation at 80° C. The melanin content was then immediately measured at 420 nm. The absorbance percentage values of the treated groups in comparison to untreated controls were calculated against per μg of the determined total protein content.

[2] = test system: cleaved caspase 3 and PARP; assay: Western blot of apoptotic molecules; format: cell-based, mouse; details: B16 melanoma cells
[3] = test system: B16 melanoma cells; assay: Anti-pigmentation effect, photographs of cell pellets; format: cell-based, mouse; details: 20 μM
Method: as §1

[4] = test system: tyrosinase; assay: Western blot of tyrosinase protein expression in B16 melanoma cells; format: cell-based, mouse; details: for tyrosinase protein expression: 20 μM treatment; for tyrosinase protein suppression, dose response and relative potency: increasing dosage; for time response of tyrosinase suppression: single dose, 24 hrs versus 48 hrs
Method: Carcinogenesis, 2006, 27, 2180-9. Briefly, cell lysates were prepared by suspending cell pellets in lysis buffer (50 mmol/l Tris-HCl [pH 8.0], 150 mmol/l NaCl, 1% NP40, 0.5% deoxycholate, 0.1% SDS, […], 1 μg/ml leupeptin, and 1 mmol/l phenylmethylsulfonyl fluoride). The protein concentration was measured using the DC Protein Assay kit (Bio-Rad, Hercules, Calif., USA). An equal amount of protein (30 μg) was loaded onto a 10% SDS polyacrylamide gel for electrophoresis, then transferred onto a polyvinylidene difluoride membrane (Amersham, Piscataway, N.J., USA). The membrane was then incubated with primary antibodies for 1 hr at room temperature against tyrosinase, Id1, and beta-actin (Santa Cruz Biotechnology, Inc., Santa Cruz, Calif., USA). After incubation with appropriate secondary antibodies, signals were visualized by an ECL Western blotting system (Amersham). The expression of β-actin was assessed as an internal loading control for total cell lysate.

[5] = test system: tyrosinase; assay: UV-induced tyrosinase protein expression, Western blot; format: cell-based, mouse
Method: The UVB source for cell irradiation was provided using a UVP UVM-57 handheld UV lamp (UVP Inc, Upland, Calif., USA).
Briefly, cell lysates were prepared by suspending cell pellets in lysis buffer (50 mmol/l Tris-HCl [pH 8.0], 150 mmol/l NaCl, 1% NP40, 0.5% deoxycholate, 0.1% SDS, 1 mg/ml aprotinin, 1 μg/ml leupeptin, and 1 mmol/l phenylmethylsulfonyl fluoride). The protein concentration was measured using the DC Protein Assay kit (Bio-Rad, Hercules, Calif., USA). An equal amount of protein (30 μg) was loaded onto a 10% SDS polyacrylamide gel for electrophoresis, then transferred onto a polyvinylidene difluoride membrane (Amersham, Piscataway, N.J., USA). The membrane was then incubated with primary antibodies for 1 hr at room temperature against tyrosinase, Id1, and beta-actin (Santa Cruz Biotechnology, Inc., Santa Cruz, Calif., USA). After incubation with appropriate secondary antibodies, signals were visualized by an ECL Western blotting system (Amersham). The expression of β-actin was assessed as an internal loading control for total cell lysate.

[6] = target: T1, tyrosinase (Mus musculus, UniProt P11344); assay: Tyrosinase activity of treated B16 melanoma cells (L-DOPA, dopachrome formation); format: cell-based; details: 20 μM; for tyrosinase activity: day 9
T1 construct: suppression of tyrosinase protein expression in B16 melanoma cells; endogenous in cells; host or cells: B16 melanoma cells
T1 sequence (P11344 19-533): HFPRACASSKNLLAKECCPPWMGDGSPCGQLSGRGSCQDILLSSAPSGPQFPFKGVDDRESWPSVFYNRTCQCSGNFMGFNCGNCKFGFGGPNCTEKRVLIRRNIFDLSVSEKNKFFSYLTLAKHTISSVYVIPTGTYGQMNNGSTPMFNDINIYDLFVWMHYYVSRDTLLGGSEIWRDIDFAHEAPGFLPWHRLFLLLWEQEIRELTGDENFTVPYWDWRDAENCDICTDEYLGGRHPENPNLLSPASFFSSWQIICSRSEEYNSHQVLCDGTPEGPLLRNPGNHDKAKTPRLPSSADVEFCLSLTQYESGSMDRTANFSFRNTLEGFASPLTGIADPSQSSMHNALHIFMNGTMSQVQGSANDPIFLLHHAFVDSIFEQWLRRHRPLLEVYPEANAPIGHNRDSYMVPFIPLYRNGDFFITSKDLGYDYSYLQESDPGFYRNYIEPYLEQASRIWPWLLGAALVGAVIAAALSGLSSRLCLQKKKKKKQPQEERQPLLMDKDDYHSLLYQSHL
Method: as §1
Harvested cell pellets were homogenized in RIPA buffer (10 mM Tris-HCl [pH 7.5], 1% NP-40, 0.1% sodium deoxycholate, 0.1% SDS, 150 mM sodium chloride, and 1 mM EDTA) with protease inhibitors and placed on ice for 30 min. The supernatants were collected after centrifuging the samples at 15,000 g at 4° C. for 30 min. For every 100 μl of supernatant, 200 μl of 0.3% L-DOPA (Sigma-Aldrich) was added. All samples, including a blank control of RIPA buffer and 0.3% L-DOPA, were incubated at 37° C. for 20 min. The dopachrome formation from each sample was then measured at 475 nm. The absorbance percentage values of the treated groups in comparison to untreated controls were calculated against per μg of the total protein content, which was determined using the DC protein assay (Bio-Rad, Hercules, Calif., USA).

[7] = test system: B16 cells xenografted on the flank of nude mice; assay: B16 xenograft model in nude mice; format: in vivo; details: cells pre-treated with 20 μM for 1 week, 14 days oral supplementation
Method: The experimental protocol was approved by the IACUC Committee of the A-STAR Biological Resource Centre (BRC) at Biopolis (IACUC no. 080302). Male BALB/c athymic nude mice (4-5 weeks old, 18-22 g) were purchased from The Jackson Laboratory (Bar Harbor, Me., USA). Mice were housed in Department 1 of the Biological Resource Centre (Biopolis, Singapore) under the standard condition (20.8±2° C., 55±1% relative humidity, 12 hrs light/dark cycle) with rodent diet (Harlan Laboratories, Inc., Indianapolis, Ind., USA) and chlorinated reverse osmosis water supplied in a pathogen-free environment. Briefly, B16 cells were pre-treated with 20 μM of γ- and δ-T3, or palm TRF for 1 week. Then, 5×10^5 pre-treated B16 cells in 100 μl serum-free DMEM were injected subcutaneously into the flank of nude mice using a 1-ml syringe with a 26-gauge needle (Becton Dickinson, Franklin Lakes, N.J., USA). This was followed by a 2-week oral supplementation of γ- and δ-T3, or palm TRF at the dose of 100 mg/kg/day. Altogether, there are four experimental groups: G1, vehicle control; G2, γT3 (100 mg/kg/d); G3, δT3 (100 mg/kg/d); and G4, full spectrum palm TRF (100 mg/kg/d). The mice were weighed daily and the tumors were measured using a Digital Carbon Fiber Caliper (Fisher Scientific, Pittsburgh, Pa., USA) at the 5th and 14th day after innoculation. After 14 days of treatment, the mice were euthanized by CO2 inhalation. Blood samples were collected through cardiac bleeding using a 26-gauge needle. Blood samples were incubated at room temperature for 30 min, followed by centrifugation at 4400 rpm for 30 min at 4° C. Serum, as the supernatant, was separated from plasma and stored at −80° C. Tumors, liver, kidney, spleen, lung, heart, and skin were harvested.

**Q.** How did the “melanin content lower than controls” value ([1]; day 5) turn out when `CC(C)=CCC/C(C)=C/CC/C(C)=C/CCC1(C)CCc2cc(O)c(C)c(C)c2O1` (stereo not shown) [γ-tocotrienol, 7,8-dimethyltocotrienol] was run?
**A.** The value was 45%.

**Q.** And the “melanin content lower than controls” value ([1]; day 9)?
**A.** The value was 30%.

**Q.** And the melanin content ([1]; listed as gamma T3)?
**A.** The melanin content was “significantly suppressed the melanin content up to day 9”.

**Q.** What about the melanin content ([1]; listed as γT3) of the same compound?
**A.** Its melanin content is “marginally lower than the treatment samples using 0.05% sodium lactate and kojic acid”.

**Q.** And the constitutive melanin synthesis ([1]; B16 melanoma cells)?
**A.** The constitutive melanin synthesis was “suppress constitutive melanin synthesis”.

**Q.** And the “induction of apoptotic molecules (cleaved caspase 3 and PARP)” value [2]?
**A.** Its value is “induced critical apoptotic molecules in a dose-dependent manner”.

**Q.** And the “induction of apoptotic molecules (cleaved caspase 3 and PARP)” value ([2]; listed as γ-T3)?
**A.** Its value is “induced cellular apoptosis”.

**Q.** And the cell pellet pigmentation ([3]; listed as gamma T3)?
**A.** The cell pellet pigmentation was “lighter cell pigmentation”.

**Q.** And the cell pellet pigmentation ([3]; listed as γT3)?
**A.** Its cell pellet pigmentation is “lighter cell pigmentation”.

**Q.** And the tyrosinase protein expression ([4]; listed as γ-T3)?
**A.** Its tyrosinase protein expression is “remarkable suppression of tyrosinase protein expression”.

**Q.** And the tyrosinase protein expression ([4]; listed as γT3)?
**A.** The tyrosinase protein expression was “suppresses tyrosinase protein expression”.

**Q.** And the “tyrosinase protein suppression, dose response and relative potency” value ([4]; listed as γ-T3)?
**A.** Its value is “significant suppression of tyrosinase in a dose-dependent manner”.

**Q.** What about the “tyrosinase protein suppression, dose response and relative potency” value ([4]; listed as γT3) of the same compound?
**A.** Its value is “stronger”.

**Q.** What about the “time response of tyrosinase suppression” value ([4]; listed as γ-T3) of the same compound?
**A.** The value was “enhanced by increasing the treatment period from 24 to 48 hrs”.

**Q.** What about the “time response of tyrosinase suppression” value ([4]; listed as γT3) of the same compound?
**A.** The value was “enhanced after a 48 hr incubation period”.

**Q.** What about the “tyrosinase protein expression of B16 cells exposed to UV” value ([5]; UV 1, 10, 30 and 60 minutes) of the same compound?
**A.** The value was “significantly suppressed the tyrosinase protein expression”.

**Q.** And the “long-term inhibitory effect on UVB-induced tyrosinase activation” value ([5]; long-term UVB)?
**A.** The value was “comparable”.

**Q.** And the tyrosinase activity ([6]; listed as gamma T3)?
**A.** Its tyrosinase activity is “significantly suppressed the activity of tyrosinase on day 9”.

**Q.** What about the tyrosinase activity ([6]; listed as γT3) of the same compound?
**A.** Its tyrosinase activity is “comparable to that treated with 0.05% kojic acid”.

**Q.** And the “tyrosinase activity compared to controls” value ([6]; day 15)?
**A.** Its value is under 15%.

**Q.** And the “pigmentation of solid tumors” value [7]?
**A.** The value was “lighter in colour compared to controls”.

**Q.** And the tumor size [7]?
**A.** Its tumor size is “significantly smaller”.
